Values of other authors, collected in patent publication US20230181564A1, “Potent Tetrahydroquinolone Eliminates Apicomplexan Parasites” (The University of Chicago, priority 2020, published 2023).

Test system: P. berghei sporozoites
Conditions: doses between 1 and 20 mg/kg; not the prodrug; cited from earlier work

For `COc1cc2[nH]c(C)c(-c3ccc(Oc4ccc(OC(F)(F)F)cc4)cc3)c(=O)c2cc1Cl` [ELQ 300], the “Efficacy in the P. berghei in vivo model” value is given as “not effective”.
